From patent US20260184693A1, “INHIBITORS OF SOLUTE CARRIER FAMILY 6A MEMBER 19 (SLC6A19) AND METHODS OF USE THEREOF” (Maze Therapeutics, Inc., priority 2022, published 2026)

These compounds were tested against T1, human SLC6A19 (Homo sapiens, UniProt Q695T7) (assay: Example B2: 13C6,15N-isoleucine uptake, RapidFire mass spectrometry, in CHO cells with doxycycline-inducible expression of human SLC6A19 and TMEM27). Conditions: read-out: SLC6A19_RapidFire Uptake Assay IC50.
T1 construct: expressed in transfected cells
T1 sequence (Q695T7 1-634): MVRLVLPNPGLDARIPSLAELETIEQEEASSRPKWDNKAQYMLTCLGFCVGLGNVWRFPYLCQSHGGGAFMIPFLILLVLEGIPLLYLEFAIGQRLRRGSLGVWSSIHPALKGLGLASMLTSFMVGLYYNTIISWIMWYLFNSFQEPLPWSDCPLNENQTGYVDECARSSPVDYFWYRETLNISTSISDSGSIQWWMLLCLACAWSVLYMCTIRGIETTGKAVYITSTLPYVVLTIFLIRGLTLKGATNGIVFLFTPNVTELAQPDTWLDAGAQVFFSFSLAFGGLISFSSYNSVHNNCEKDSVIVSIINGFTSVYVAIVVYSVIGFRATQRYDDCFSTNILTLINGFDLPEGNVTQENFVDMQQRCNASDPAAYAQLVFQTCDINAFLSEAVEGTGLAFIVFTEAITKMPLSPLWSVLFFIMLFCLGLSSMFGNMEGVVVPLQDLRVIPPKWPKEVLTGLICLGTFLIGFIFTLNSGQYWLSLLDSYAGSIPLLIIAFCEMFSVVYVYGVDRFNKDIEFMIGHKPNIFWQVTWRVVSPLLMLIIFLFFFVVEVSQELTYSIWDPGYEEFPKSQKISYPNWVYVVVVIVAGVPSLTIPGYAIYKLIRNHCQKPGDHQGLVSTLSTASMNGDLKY
T1 sequence (Q9HBJ8 15-222 partner): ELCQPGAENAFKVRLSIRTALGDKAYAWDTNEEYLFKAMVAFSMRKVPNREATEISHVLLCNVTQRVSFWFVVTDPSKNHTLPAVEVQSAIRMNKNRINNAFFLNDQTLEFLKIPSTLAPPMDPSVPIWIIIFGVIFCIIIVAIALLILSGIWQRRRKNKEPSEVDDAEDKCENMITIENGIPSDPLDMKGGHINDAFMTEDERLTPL
Type: cell-based
How it was run: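 Labelled isoleucine (13C6,15N; 2 mM added) was given 20 min at 37 °C, following a 20-min compound pre-treatment (10-point 2-fold series, duplicate). Cells were doxycycline-induced CHO co-expressing human SLC6A19 and TMEM27. Intracellular label was quantified by RapidFire-MS peak areas against a 13C-leucine standard.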

IC50	SMILES
> 27000 nM	CC(C(=O)N1CCC[C@@H](N(C)C(=O)NCc2cc3cc(Cl)ccc3[nH]2)C1)C1(O)CCC1 (stereo partly drawn) [Compound 105, 3-((5-chloro-1H-indol-2-yl)methyl)-1-((3R)-1-(2-(1-hydroxycyclobutyl)propanoyl)piperidin-3-yl)-1-methylurea]
1770 nM	CN(C(=O)NCc1cc2cc(Cl)ccc2[nH]1)[C@@H]1CCCN(C(=O)CC2CCCCO2)C1 (stereo partly drawn) [Compound 106, 3-((5-chloro-1H-indol-2-yl)methyl)-1-methyl-1-((3R)-1-(2-(tetrahydro-2H-pyran-2-yl)acetyl)piperidin-3-yl)urea]
1250 nM	COc1ccc(CC(=O)N2CCC[C@@H](N(C)C(=O)NCc3cc4cc(Cl)ccc4[nH]3)C2)cc1F [Compound 107, (R)-3-((5-chloro-1H-indol-2-yl)methyl)-1-(1-(2-(3-fluoro-4-methoxyphenyl)acetyl)piperidin-3-yl)-1-methylurea]
2280 nM	CN(C(=O)NCc1cc2cc(Cl)ccc2[nH]1)[C@@H]1CCCN(C(=O)[C@H]2CC[C@H](O)CC2)C1 [Compound 108]
1810 nM	CCNC(=O)NC(C)C(=O)N1CCC[C@@H](N(C)C(=O)NCc2cc3cc(Cl)ccc3[nH]2)C1 (stereo partly drawn) [Compound 109, 3-((5-chloro-1H-indol-2-yl)methyl)-1-((3R)-1-((ethylcarbamoyl)alanyl)piperidin-3-yl)-1-methylurea]
8560 nM	CN(C(=O)NCc1cc2cc(Cl)ccc2[nH]1)[C@@H]1CCCN(C(=O)C(O)CO)C1 (stereo partly drawn) [Compound 110, 3-((5-chloro-1H-indol-2-yl)methyl)-1-((3R)-1-(2,3-dihydroxypropanoyl)piperidin-3-yl)-1-methylurea]
8600 nM	CN(C(=O)NCc1cc2cc(Cl)ccc2[nH]1)[C@@H]1CCCN(C(=O)C2(CO)CCC2)C1 [Compound 122, (R)-3-((5-chloro-1H-indol-2-yl)methyl)-1-(1-(1-(hydroxymethyl)cyclobutane-1-carbonyl)piperidin-3-yl)-1-methylurea]
427 nM	CN(C(=O)NCc1cc2cc(Cl)ccc2[nH]1)[C@@H]1CCCN(C(=O)C23CC(C2)C3)C1 [Compound 123, (R)-1-(1-(bicyclo[1.1.1]pentane-1-carbonyl)piperidin-3-yl)-3-((5-chloro-1H-indol-2-yl)methyl)-1-methylurea]
256 nM	CN(C(=O)NCc1cc2cc(Cl)ccc2[nH]1)[C@@H]1CCCN(C(=O)C2CC(F)C2)C1 (stereo partly drawn) [Compound 124, (R)-3-((5-chloro-1H-indol-2-yl)methyl)-1-(1-(3-fluorocyclobutane-1-carbonyl)piperidin-3-yl)-1-methylurea]
259 nM	CN(C(=O)NCc1cc2cc(Cl)ccc2[nH]1)[C@@H]1CCCN(C(=O)C2CCC2F)C1 (stereo partly drawn) [Compound 125, 3-((5-chloro-1H-indol-2-yl)methyl)-1-((3R)-1-(2-fluorocyclobutane-1-carbonyl)piperidin-3-yl)-1-methylurea]
1440 nM	CN(C(=O)NCc1cc2cc(Cl)ccc2[nH]1)[C@@H]1CCCN(C(=O)C2(C)COC2)C1 [Compound 126, (R)-3-((5-chloro-1H-indol-2-yl)methyl)-1-methyl-1-(1-(3-methyloxetane-3-carbonyl)piperidin-3-yl)urea]
679 nM	CN(C(=O)NCc1cc2cc(Cl)ccc2[nH]1)[C@@H]1CCCN(C(=O)C2(F)CCC2)C1 [Compound 127, (R)-3-((5-chloro-1H-indol-2-yl)methyl)-1-(1-(1-fluorocyclobutane-1-carbonyl)piperidin-3-yl)-1-methylurea]
1820 nM	CN(C(=O)NCc1cc2cc(Cl)ccc2[nH]1)[C@@H]1CCCN(C(=O)C2(O)CCC2)C1 [Compound 128, (R)-3-((5-chloro-1H-indol-2-yl)methyl)-1-(1-(1-hydroxycyclobutane-1-carbonyl)piperidin-3-yl)-1-methylurea]
> 31800 nM	CN1CC(C(=O)N2CCC[C@@H](N(C)C(=O)NCc3cc4cc(Cl)ccc4[nH]3)C2)C1 [Compound 129, (R)-3-((5-chloro-1H-indol-2-yl)methyl)-1-methyl-1-(1-(1-methylazetidine-3-carbonyl)piperidin-3-yl)urea]
